Format in all cases: in vivo, SD rat
Assay [1] relates to ovariectomized osteoporotic rats (去卵巢骨质疏松大鼠). As to the kind of experiment: Bone mineral density (total and trabecular) in ovariectomized osteoporotic rats (Table 2). Particulars: oral once daily, 1 month; calcitriol 5 μg/kg, emodin 5 μg/kg, calcitriol + emodin 5 μg/kg; right tibia.
The test system is the same in assay [2]. Kind of assay: Bone mineral content (total and trabecular) in ovariectomized osteoporotic rats (Table 3). Particulars: oral once daily, 1 month; calcitriol 5 μg/kg, emodin 5 μg/kg, calcitriol + emodin 5 μg/kg; right tibia.
Assay [3] shares this test system. As to the kind of experiment: Serum calcitonin in ovariectomized osteoporotic rats, radioimmunoassay (Table 4).
Assay [4] has the same test system. Kind of assay: Osteocalcin in ovariectomized osteoporotic rats, radioimmunoassay (Table 5).
The test system is the same in assay [5]. As to the kind of experiment: Serum estradiol in ovariectomized osteoporotic rats, radioimmunoassay (Table 6).
Assay [6] shares this test system. Kind of assay: Serum calcium in ovariectomized osteoporotic rats (Table 7). Particulars: for serum calcium content (result in words): compared with negative control group.
Assay [7] shares this test system. Kind of assay: Serum phosphorus in ovariectomized osteoporotic rats (Table 8). Particulars: for serum phosphorus content (result in words): compared with negative control group.
Assay [8] shares this test system. Kind of assay: Serum alkaline phosphatase in ovariectomized osteoporotic rats (Table 9). Particulars: three months after surgery, compared with negative control group.
Assay [9] has the same test system. Kind of assay: Uterine wet weight in ovariectomized osteoporotic rats (Table 10). Particulars: three months after surgery; for uterine wet weight (result in words): compared with negative control group; for uterine wet weight: oral once daily, 1 month, nilestriol 1 mg/kg, calcitriol 5 μg/kg, emodin 5 μg/kg, calcitriol + emodin 5 μg/kg.
[10] abbreviates: three months after surgery, oral once daily, 1 month, nilestriol 1 mg/kg, calcitriol 5 μg/kg, emodin 5 μg/kg, calcitriol + emodin 5 μg/kg.

On to `C=C1/C(=C\C=C2/CCC[C@]3(C)[C@@H]([C@H](C)CCCC(C)(C)O)CC[C@@H]23)C[C@@H](O)C[C@@H]1O` [骨化三醇组, 9,10-开环胆甾-5Z,7E,10(19)-三烯-1α,3β,25-三醇], for which the “bone mineral density (result in words)” value in assay [1] is recorded as “产生一定的增强骨密度的作用”. The “bone mineral content (result in words)” value in assay [2] was “产生一定的提高骨含量的作用”. Besides, the serum calcitonin content came out at 241.23 ± 11.43 ng/L in assay [3] (before surgery (baseline)) and 321.34 ± 13.43 ng/L in assay [3] (setting [10]). Also, in [3] (three months after surgery), the “serum calcitonin content (result in words)” value is “血清降钙素含量上升”. For the same compound, the results for the osteocalcin content in assay [4] (before surgery (baseline)) and in assay [4] (setting [10]) were 3.22 ± 1.22 ng/L and 3.45 ± 1.21 ng/L, respectively. Further, in [4] (three months after surgery), the “osteocalcin content (result in words)” value is reported as “骨钙素含量上升”. In addition, the serum estradiol content is 13.21 ± 1.56 pg/mL in assay [5] (before surgery (baseline)) and 15.34 ± 1.53 pg/mL in assay [5] (setting [10]). Further, the “serum estradiol content (result in words)” value in [5] (three months after surgery) was “血清雌二醇含量上升”. Further, the calcium content in [6] (before surgery (baseline)) was 4.10 ± 0.54 mmol/L; in [6] (setting [10]), 4.24 ± 0.41 mmol/L. For the same compound, in assay [6] (three months after surgery), the “serum calcium content (result in words)” value was “血清钙和磷含量与阴性对照组相比上升”. The results for the phosphorus content in assay [7] (before surgery (baseline)) and in assay [7] (setting [10]) were 1.61 ± 0.38 mmol/L and 1.71 ± 0.53 mmol/L, respectively. Besides, the “serum phosphorus content (result in words)” value (“serum phosphorus content” for short) in [7] (three months after surgery) is “血清钙和磷含量与阴性对照组相比上升”. In addition, the “serum alkaline phosphatase content (result in words)” value (“serum alkaline phosphatase content” for short) in assay [8] was “与阴性对照组相比也出现下降”. Also, the “uterine wet weight (result in words)” value in [9] was “子宫湿重明显高于阴性对照组”. The uterine wet weight in assay [9] is 90.43 ± 10.43 mg.

Take `Cc1cc(O)c2c(c1)C(=O)c1cc(O)cc(O)c1C2=O` [大黄素组, 大黄素]: in assay [1], the “bone mineral density (result in words)” value is reported as “产生一定的增强骨密度的作用”. Besides, in assay [2], the “bone mineral content (result in words)” value is reported as “产生一定的提高骨含量的作用”. For the same compound, the serum calcitonin content worked out at 222.43 ± 19.43 ng/L in [3] (before surgery (baseline)) and 265.24 ± 22.43 ng/L in assay [3] (setting [10]). Also, in assay [3] (three months after surgery), the “serum calcitonin content (result in words)” value is reported as “血清降钙素含量上升”. Moreover, the osteocalcin content came to 3.09 ± 1.21 ng/L in [4] (before surgery (baseline)) and 3.38 ± 0.98 ng/L in assay [4] (setting [10]). In [4] (three months after surgery), the “osteocalcin content (result in words)” value was “骨钙素含量上升”. Further, the serum estradiol content was determined as 12.87 ± 2.01 pg/mL in assay [5] (before surgery (baseline)) and 14.67 ± 1.76 pg/mL in assay [5] (setting [10]). In assay [5] (three months after surgery), the “serum estradiol content (result in words)” value is “血清雌二醇含量上升”. Besides, the calcium content in assay [6] (before surgery (baseline)) was 4.21 ± 0.24 mmol/L; in assay [6] (setting [10]), 4.21 ± 0.56 mmol/L. Besides, in assay [6] (three months after surgery), the “serum calcium content (result in words)” value is listed as “血清钙和磷含量与阴性对照组相比上升”. The results for the phosphorus content in assay [7] (before surgery (baseline)) and in assay [7] (setting [10]) were 1.58 ± 0.43 mmol/L and 1.73 ± 0.65 mmol/L, respectively. Also, the “serum phosphorus content” value in assay [7] (three months after surgery) was “血清钙和磷含量与阴性对照组相比上升”. Besides, in assay [8], the “serum alkaline phosphatase content” value was “与阴性对照组相比也出现下降”. Also, in [9], the “uterine wet weight (result in words)” value was “子宫湿重明显高于阴性对照组”. Moreover, in [9], the uterine wet weight was determined as 89.34 ± 19.32 mg.

With `C#C[C@]1(O)[C@H](O)C[C@H]2[C@@H]3CCc4cc(OC5CCCC5)ccc4[C@H]3CC[C@@]21C` [阳性对照组, 尼尔雌醇], the serum calcitonin content in [3] (before surgery (baseline)) worked out at 231.35 ± 20.11 ng/L; in assay [3] (setting [10]) it was 459.34 ± 11.43 ng/L. Also, the osteocalcin content in [4] (before surgery (baseline)) came to 2.98 ± 0.89 ng/L; in [4] (setting [10]), 4.12 ± 1.32 ng/L. Further, the serum estradiol content came out at 12.65 ± 2.21 pg/mL in [5] (before surgery (baseline)) and 20.43 ± 1.54 pg/mL in assay [5] (setting [10]). Besides, the calcium content in [6] (before surgery (baseline)) worked out at 4.19 ± 0.43 mmol/L; in [6] (setting [10]), 4.65 ± 0.12 mmol/L. Further, in assay [6] (three months after surgery), the “serum calcium content (result in words)” value is listed as “血清钙和磷含量与阴性对照组相比上升”. Also, the phosphorus content in assay [7] (before surgery (baseline)) came to 1.55 ± 0.45 mmol/L; in [7] (setting [10]), 1.87 ± 0.46 mmol/L. In addition, the “serum phosphorus content” value in assay [7] (three months after surgery) is “血清钙和磷含量与阴性对照组相比上升”. For the same compound, in assay [8], the “serum alkaline phosphatase content” value is “与阴性对照组相比出现下降”. Besides, the “uterine wet weight (result in words)” value in assay [9] is “子宫湿重明显高于阴性对照组”. Further, the uterine wet weight in [9] is 118.43 ± 12.43 mg.

For the origin of these results see CN109260209A, “一种骨化三醇软胶囊及其制备方法” (CP Pharmaceutical Qingdao Co Ltd, priority 2018, dated 2019).
